# Laboratory results taken from patent US4728725A, “Retro-inverted peptides analogues of Bradykinin Potentiator BPP5a” (Enichem, S.p.A., priority 1984, dated 1988).
# Where no end group is shown, it is not given here. [ ]: non-standard residue; d: D form. pGlu = O=C1CC[C@@H](C(=O)O)N1
# Key:
# [1] = target: T1, angiotensin conversion enzyme (Oryctolagus cuniculus, UniProt P12822); experiment: Inhibition of angiotensin conversion enzyme in vitro (method of Cushman and Cheung); assay type: biochemical; conditions: enzyme isolated from rabbit lungs; read-out: I50
# T1 construct: with the enzyme isolated from rabbit lungs; from tissue; host or cells: rabbit lungs
# T1 sequence (P12822 34-1310): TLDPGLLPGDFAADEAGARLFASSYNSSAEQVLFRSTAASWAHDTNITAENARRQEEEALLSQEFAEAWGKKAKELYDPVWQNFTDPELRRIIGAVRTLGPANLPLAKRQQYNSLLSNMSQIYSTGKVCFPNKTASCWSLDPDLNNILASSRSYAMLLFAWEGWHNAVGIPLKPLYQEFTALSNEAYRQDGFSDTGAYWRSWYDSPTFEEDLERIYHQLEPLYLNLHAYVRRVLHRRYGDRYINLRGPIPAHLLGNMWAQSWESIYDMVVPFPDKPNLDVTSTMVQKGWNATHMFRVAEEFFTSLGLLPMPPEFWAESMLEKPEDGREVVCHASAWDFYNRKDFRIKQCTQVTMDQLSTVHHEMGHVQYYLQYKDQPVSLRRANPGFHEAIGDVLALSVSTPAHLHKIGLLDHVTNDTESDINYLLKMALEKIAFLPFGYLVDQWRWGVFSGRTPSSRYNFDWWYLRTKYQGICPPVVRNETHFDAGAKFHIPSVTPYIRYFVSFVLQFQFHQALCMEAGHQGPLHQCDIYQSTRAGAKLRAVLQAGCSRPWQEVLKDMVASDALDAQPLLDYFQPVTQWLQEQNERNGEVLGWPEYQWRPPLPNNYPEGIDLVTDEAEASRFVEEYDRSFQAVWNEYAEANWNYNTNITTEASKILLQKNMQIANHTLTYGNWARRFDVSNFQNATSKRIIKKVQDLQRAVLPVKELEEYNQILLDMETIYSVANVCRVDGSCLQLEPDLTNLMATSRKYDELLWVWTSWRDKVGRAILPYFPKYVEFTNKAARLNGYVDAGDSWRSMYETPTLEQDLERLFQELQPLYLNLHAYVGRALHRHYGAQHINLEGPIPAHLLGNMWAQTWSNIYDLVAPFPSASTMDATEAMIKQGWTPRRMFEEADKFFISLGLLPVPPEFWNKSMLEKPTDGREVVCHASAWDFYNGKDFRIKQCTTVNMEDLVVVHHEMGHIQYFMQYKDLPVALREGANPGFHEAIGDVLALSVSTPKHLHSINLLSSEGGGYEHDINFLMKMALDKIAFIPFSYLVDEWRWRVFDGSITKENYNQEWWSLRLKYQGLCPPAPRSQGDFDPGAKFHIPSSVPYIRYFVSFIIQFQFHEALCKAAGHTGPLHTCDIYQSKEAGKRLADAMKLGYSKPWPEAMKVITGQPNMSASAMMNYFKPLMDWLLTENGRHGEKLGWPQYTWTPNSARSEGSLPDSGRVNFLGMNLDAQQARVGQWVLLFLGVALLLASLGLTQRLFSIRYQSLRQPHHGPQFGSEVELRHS
# Procedure: The inhibition of angiotensin conversion enzyme by the compounds corresponding to general formula (I) is measured, in vitro, with the enzyme isolated from rabbit lungs according to the method by Cushman and Cheung [Biochem.-Pharmacol., 20, 1637, (1971)].
# In Table 1 the values of I50 (μM) obtained by using the retroinverted analogues and natural not-modified peptide, which is used as the comparison term, are reported.
# [2] = system: angiotensin conversion enzyme and peptidases; experiment: Stability: resistance of peptides to angiotensin conversion enzyme and to peptidases; assay type: in vitro ADME; conditions: after 3 hours of incubation
# From the text: The stability of peptides of formula (B) and (C) has been verified by determining the resistance of said peptides to the angiotensin conversion enzyme and to peptidases.
# [3] = system: angiotensin conversion enzyme; conditions: 15 minutes of preincubation with the enzyme; cited from earlier work
Compound,IC50 [1],resistance towards enzymatic degradation [2],loss of inhibiting activity [3]
"C[C@@H](C(=O)N[C@H](Cc1ccccc1)C(=O)N[C@H](CCCCN)C(=O)N[C@@H]1CCC(=O)N1)C(=O)N1C[C@@H](Sc2ccccc2)C[C@H]1C(=O)O [B, gGlp--Dlys--DPhe--(S)m Ala--Pro--(4-allo--SPh)--OH]",7.5 µM,resistant,–
Glp-Lys-Trp-Ala-Pro ([pGlu]KWAP) [BPP5a],–,–,complete loss
